# Molecular target: T1, recombinant human AKR1C3 (Homo sapiens, UniProt P42330)
# T1 construct: GST (cleaved yes); made in house; host or cells: E. coli
# T1 sequence (P42330 1-323): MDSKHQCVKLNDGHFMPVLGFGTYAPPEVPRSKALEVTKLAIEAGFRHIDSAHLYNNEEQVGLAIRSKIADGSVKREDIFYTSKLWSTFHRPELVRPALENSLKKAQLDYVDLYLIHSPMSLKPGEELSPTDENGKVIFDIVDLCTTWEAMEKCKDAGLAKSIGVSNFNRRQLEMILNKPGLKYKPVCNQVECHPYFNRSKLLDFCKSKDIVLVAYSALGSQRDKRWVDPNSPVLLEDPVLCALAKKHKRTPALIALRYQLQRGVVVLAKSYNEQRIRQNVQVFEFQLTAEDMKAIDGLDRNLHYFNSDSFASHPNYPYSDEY
# Assay: AKR1C3-inhibitory activity assay (generation of Coumberol from Coumberone)
# Assay type: biochemical
# Details: Coumberone 0.3 μM, NADPH 10 μM, 22° C., typically 90 min, average or median values
# Procedure: The AKR1C3-inhibitory activity of the substances of the present invention was measured in the AKR1C3 assay described in the paragraphs below.
# Essentially, the enzyme activity is measured by quantification of the generation of Coumberol from Coumberone (Halim et al. J. AM. CHEM. SOC. 2008, 130:14123-14128 and Yee et al. Proc. Natl. Acad. Sci. USA 2006, 103:13304-13309). In this test, the increase of the highly fluorescent Coumberol by NADPH- (nicotinamide adenine dinucleotide phosphate)-dependent reduction of the non-fluorescent Coumberone by AKR1C3 was determined.
# The enzyme used was recombinant human AKR1C3 (Aldo-keto reductase family 1 member C3; GenBank Accession No. NM_003739). This was expressed in E. coli as GST (glutathione S transferase) fusion protein and purified by glutathione Sepharose affinity chromatography. The GST was removed by digestion with thrombin and subsequent size exclusion chromatography (Dufort, I., Rheault, P., Huang, X F., Soucy, P., and Luu-The, V., Endocrinology 140, 568-574 (1999)).
# For the assay, 50 nl of a 100-fold concentrated solution of the test substance in DMSO were pipetted into a black low-volume 384-well microtiter plate (Greiner Bio-One, Frickenhausen, Germany), 2.5 μl of a solution of AKR1C3 in assay buffer [50 mM potassium phosphate buffer pH 7, 1 mM DTT, 0.0022% (w/v) Pluronic F-127, 0.01% BSA (w/v) and protease inhibitor cocktail (Complete, EDTA-free Protease Inhibitor Cocktail from Roche)] were added and the mixture was incubated for 15 min to allow pre-binding of the substances to the enzyme prior to the enzyme reaction. The enzyme reaction was then started by addition of 2.5 μl of a solution of NADPH (20 μM→final concentration in 5 μl of assay volume is 10 μM) and Coumberone (0.6 μM→final concentration in 5 μl of assay volume is 0.3 μM) in assay buffer, and the resulting mixture was incubated at 22° C. for the reaction time of typically 90 min. The concentration of the AKR1C3 and the reaction time was adapted to the respective activity of the enzyme preparation and adjusted such that the assay was carried out in the linear range. Typical AKR1C3 concentrations were in the region of 1 nM. The reaction was stopped by addition of 2.5 μl of a stop solution consisting of 3 μM EM-1404 as inhibitor (U.S. Pat. No. 6,541,463) in 50 mM HEPES pH7.5 (3 μM EM-1404→final concentration in 7.5 μl of assay volume is 1 μM). The fluorescence of the Coumberole was then measured at 520 nm (excitation at 380 nm) using a suitable measuring instrument (Pherastar from BMG Labtechnologies). The intensity of the fluorescence was used as a measure of the amount of Coumberole formed and thus of the enzyme activity of AKR1C3. The data were normalized (enzyme reaction without inhibitor=0% inhibition; all other assay components, but no enzyme=100% inhibition).
row,Compound,IC50 [nM]
1,"C[C@@H]1CN(S(=O)(=O)c2ccccc2C#N)[C@@H](C)CN1C(=O)c1cnn[nH]1 (stereo in doubt) [Example 14, 2-{[(2S,5R)-2,5-dimethyl-4-(1H-1,2,3-triazol-5-ylcarbonyl)piperazin-1-yl]sulfonyl}benzonitrile]",439
2,"C[C@@H]1CN(C(=O)c2cnn[nH]2)[C@@H](C)CN1S(=O)(=O)c1cc(F)cc(F)c1 [Example 3, {(2S,5R)-4-[(3,5-difluorophenyl)sulfonyl]-2,5-dimethylpiperazin-1-yl}(1H-1,2,3-triazol-5-yl)methanone]",1
3,"C[C@@H]1CN(C(=O)c2cnn[nH]2)[C@@H](C)CN1S(=O)(=O)c1cc(Cl)ccc1Cl [Example 4, {(2S,5R)-4-[(2,5-dichlorophenyl)sulfonyl]-2,5-dimethylpiperazin-1-yl}(1H-1,2,3-triazol-5-yl)methanone]",2
4,"C[C@@H]1CN(C(=O)c2cnn[nH]2)[C@@H](C)CN1S(=O)(=O)c1ccccc1C(F)(F)F [Example 6, [(2S,5R)-2,5-dimethyl-4-{[2-(trifluoromethyl)phenyl]sulfonyl}piperazin-1-yl](1H-1,2,3-triazol-5-yl)methanone]",2
5,"C[C@@H]1CN(C(=O)c2cnn[nH]2)[C@@H](C)CN1S(=O)(=O)c1ccc(C#N)cc1 [Example 15, 4-{[(2R,5S)-2,5-dimethyl-4-(1H-1,2,3-triazol-5-ylcarbonyl)piperazin-1-yl]sulfonyl}benzonitrile]",55
6,"COc1ccccc1S(=O)(=O)N1C[C@H](C)N(C(=O)c2cnn[nH]2)C[C@H]1C [Example 16, {(2S,5R)-4-[(2-methoxyphenyl)sulfonyl]-2,5-dimethylpiperazin-1-yl}(1H-1,2,3-triazol-5-yl)methanone]",4
7,"CC1(C)CN(C(=O)c2c[nH]nn2)CCN1S(=O)(=O)c1ccccc1 [Example 19, [3,3-dimethyl-4-(phenylsulfonyl)piperazin-1-yl](1H-1,2,3-triazol-4-yl)methanone]",17
8,"CC1(C)CN(C(=O)c2c[nH]nn2)CCN1S(=O)(=O)c1cccc(F)c1 [Example 20, {4-[(3-fluorophenyl)sulfonyl]-3,3-dimethylpiperazin-1-yl}(1H-1,2,3-triazol-4-yl)methanone]",11
9,"CC1(C)CN(C(=O)c2c[nH]nn2)CCN1S(=O)(=O)c1cccc(Cl)c1 [Example 21, {4-[(3-chlorophenyl)sulfonyl]-3,3-dimethylpiperazin-1-yl}(1H-1,2,3-triazol-4-yl)methanone]",3
10,"Cc1cc(C)cc(S(=O)(=O)N2CCN(C(=O)c3c[nH]nn3)CC2(C)C)c1 [Example 22, {4-[(3,5-dimethylphenyl)sulfonyl]-3,3-dimethylpiperazin-1-yl}(1H-1,2,3-triazol-4-yl)methanone]",2
11,"CC1(C)CN(C(=O)c2c[nH]nn2)CCN1S(=O)(=O)c1cccc(Br)c1 [Example 23, {4-[(3-bromophenyl)sulfonyl]-3,3-dimethylpiperazin-1-yl}(1H-1,2,3-triazol-4-yl)methanone]",2
12,"CC1(C)CN(C(=O)c2c[nH]nn2)CCN1S(=O)(=O)c1cccc(Cl)c1F [Example 24, {4-[(3-chloro-2-fluorophenyl)sulfonyl]-3,3-dimethylpiperazin-1-yl}(1H-1,2,3-triazol-4-yl)methanone]",8
13,"CC1(C)CN(C(=O)c2c[nH]nn2)CCN1S(=O)(=O)c1cc(Cl)ccc1Cl [Example 25, {4-[(2,5-dichlorophenyl)sulfonyl]-3,3-dimethylpiperazin-1-yl}(1H-1,2,3-triazol-4-yl)methanone]",7
14,"CC1(C)CN(C(=O)c2c[nH]nn2)CCN1S(=O)(=O)c1cc(Cl)cc(Cl)c1 [Example 26, {4-[(3,5-dichlorophenyl)sulfonyl]-3,3-dimethylpiperazin-1-yl}(1H-1,2,3-triazol-4-yl)methanone]",4
15,"CC1(C)CN(C(=O)c2c[nH]nn2)CCN1S(=O)(=O)c1ccccc1C(F)(F)F [Example 27, (3,3-dimethyl-4-{[2-(trifluoromethyl)phenyl]sulfonyl}piperazin-1-yl)(1H-1,2,3-triazol-4-yl)methanone]",7

# Other lines, results leading:
row,IC50 [nM],Compound
1,2,"C[C@@H]1CN(C(=O)c2cnn[nH]2)[C@@H](C)CN1S(=O)(=O)c1ccccc1 [Example 1, [(2S,5R)-2,5-dimethyl-4-(phenylsulfonyl)piperazin-1-yl](1H-1,2,3-triazol-5-yl)methanone]"
2,2,"C[C@@H]1CN(C(=O)c2cnn[nH]2)[C@@H](C)CN1S(=O)(=O)c1ccccc1F [Example 5, {(2S,5R)-4-[(2-fluorophenyl)sulfonyl]-2,5-dimethylpiperazin-1-yl}(1H-1,2,3-triazol-5-yl)methanone]"
3,1,"C[C@@H]1CN(C(=O)c2cnn[nH]2)[C@@H](C)CN1S(=O)(=O)c1cccc(F)c1 [Example 7, sodium 5-({(2S,5R)-4-[(3-fluorophenyl)sulfonyl]-2,5-dimethylpiperazin-1-yl}carbonyl)-1,2,3-triazol-1-ide]"
4,1,"C[C@@H]1CN(C(=O)c2c[nH]nn2)[C@@H](C)CN1S(=O)(=O)c1cccc(S(F)(F)(F)(F)F)c1 [Example 8, [(2S,5R)-2,5-dimethyl-4-{[3-(pentafluoro-λ^6-sulfanyl)phenyl]sulfonyl}piperazin-1-yl](1H-1,2,3-triazol-4-yl)methanone]"
5,1,"C[C@@H]1CN(C(=O)c2c[nH]nn2)[C@@H](C)CN1S(=O)(=O)c1cccc(Cl)c1F [Example 9, {(2S,5R)-4-[(3-chloro-2-fluorophenyl)sulfonyl]-2,5-dimethylpiperazin-1-yl}(1H-1,2,3-triazol-4-yl)methanone]"
6,3,"C[C@@H]1CN(C(=O)c2c[nH]nn2)[C@@H](C)CN1S(=O)(=O)c1ccc(Cl)s1 [Example 10, {(2S,5R)-4-[(5-chlorothiophen-2-yl)sulfonyl]-2,5-dimethylpiperazin-1-yl}(1H-1,2,3-triazol-4-yl)methanone]"
7,77,"C[C@@H]1CN(C(=O)c2c[nH]nn2)[C@@H](C)CN1S(=O)(=O)c1cccnc1 [Example 11, [(2S,5R)-2,5-dimethyl-4-(pyridin-3-ylsulfonyl)piperazin-1-yl](1H-1,2,3-triazol-5-yl)methanone]"
8,1,"C[C@@H]1CN(C(=O)c2c[nH]nn2)[C@@H](C)CN1S(=O)(=O)c1cccc(C(F)(F)F)c1 [Example 12, [(2S,5R)-2,5-dimethyl-4-{[3-(trifluoromethyl)phenyl]sulfonyl}piperazin-1-yl](1H-1,2,3-triazol-4-yl)methanone]"
9,2,"C[C@@H]1CN(C(=O)c2c[nH]nn2)[C@@H](C)CN1S(=O)(=O)c1cc(F)ccc1F [Example 13, {(2S,5R)-4-[(2,5-difluorophenyl)sulfonyl]-2,5-dimethylpiperazin-1-yl}(1H-1,2,3-triazol-4-yl)methanone]"
10,12,"C[C@@H]1CN(C(=O)c2cnn[nH]2)[C@@H](C)CN1S(=O)(=O)c1ccc(O)cc1 [Example 17, {(2S,5R)-4-[(4-hydroxyphenyl)sulfonyl]-2,5-dimethylpiperazin-1-yl}(1H-1,2,3-triazol-5-yl)methanone]"
11,11,"C[C@@H]1CN(S(=O)(=O)c2ccccc2)C[C@H](C)N1C(=O)c1c[nH]nn1 [Example 18, [(2R,6S)-2,6-dimethyl-4-(phenylsulfonyl)piperazin-1-yl](1H-1,2,3-triazol-4-yl)methanone]"
